Key:
Experiment in all cases: KINOMEscan competition binding
Conditions in all cases: compound 10.0 µM
PRPF4B (human) = PRPF4B (human) (UniProt Q13523)
CDK9 (human) = CDK9 (human) (UniProt P50750)
PIK3CB (human) = PIK3CB (human) (UniProt P42338)
NEK5 (human) = NEK5 (human) (UniProt Q6P3R8)
PIK3C2B (human) = PIK3C2B (human) (UniProt O00750)
TNNI3K (human) = TNNI3K (human) (UniProt Q59H18)
PRKD1 (human) = PRKD1 (human) (UniProt Q15139)
TNK2 (human) = TNK2 (human) (UniProt Q07912)
CSNK2A1 (human) = CSNK2A1 (human) (UniProt P68400)
PTK2 (human) = PTK2 (human) (UniProt Q05397)
MAP3K7 (human) = MAP3K7 (human) (UniProt O43318)
Sequence of MAP3K7 (human) (O43318 whole entry, looked up): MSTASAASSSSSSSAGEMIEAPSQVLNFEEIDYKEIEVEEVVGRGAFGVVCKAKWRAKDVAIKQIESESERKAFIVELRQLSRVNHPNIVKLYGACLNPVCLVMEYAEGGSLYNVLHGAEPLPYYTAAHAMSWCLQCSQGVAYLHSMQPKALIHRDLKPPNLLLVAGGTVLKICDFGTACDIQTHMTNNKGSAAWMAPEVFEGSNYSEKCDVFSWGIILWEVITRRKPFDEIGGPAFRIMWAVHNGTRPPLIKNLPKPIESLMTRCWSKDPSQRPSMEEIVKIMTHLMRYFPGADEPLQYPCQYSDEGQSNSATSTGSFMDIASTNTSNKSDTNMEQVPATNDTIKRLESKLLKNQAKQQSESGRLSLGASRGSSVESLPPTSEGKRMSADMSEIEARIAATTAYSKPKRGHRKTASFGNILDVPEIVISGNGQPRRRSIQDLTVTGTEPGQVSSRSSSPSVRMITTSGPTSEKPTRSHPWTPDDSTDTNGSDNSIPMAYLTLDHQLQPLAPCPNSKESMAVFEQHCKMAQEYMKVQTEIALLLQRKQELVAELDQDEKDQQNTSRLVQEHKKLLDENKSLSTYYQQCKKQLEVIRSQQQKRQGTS

FRK (human) = FRK (human) (UniProt P42685)
TIE1 (human) = TIE1 (human) (UniProt P35590)
Sequence of TIE1 (human) (P35590 whole entry, looked up): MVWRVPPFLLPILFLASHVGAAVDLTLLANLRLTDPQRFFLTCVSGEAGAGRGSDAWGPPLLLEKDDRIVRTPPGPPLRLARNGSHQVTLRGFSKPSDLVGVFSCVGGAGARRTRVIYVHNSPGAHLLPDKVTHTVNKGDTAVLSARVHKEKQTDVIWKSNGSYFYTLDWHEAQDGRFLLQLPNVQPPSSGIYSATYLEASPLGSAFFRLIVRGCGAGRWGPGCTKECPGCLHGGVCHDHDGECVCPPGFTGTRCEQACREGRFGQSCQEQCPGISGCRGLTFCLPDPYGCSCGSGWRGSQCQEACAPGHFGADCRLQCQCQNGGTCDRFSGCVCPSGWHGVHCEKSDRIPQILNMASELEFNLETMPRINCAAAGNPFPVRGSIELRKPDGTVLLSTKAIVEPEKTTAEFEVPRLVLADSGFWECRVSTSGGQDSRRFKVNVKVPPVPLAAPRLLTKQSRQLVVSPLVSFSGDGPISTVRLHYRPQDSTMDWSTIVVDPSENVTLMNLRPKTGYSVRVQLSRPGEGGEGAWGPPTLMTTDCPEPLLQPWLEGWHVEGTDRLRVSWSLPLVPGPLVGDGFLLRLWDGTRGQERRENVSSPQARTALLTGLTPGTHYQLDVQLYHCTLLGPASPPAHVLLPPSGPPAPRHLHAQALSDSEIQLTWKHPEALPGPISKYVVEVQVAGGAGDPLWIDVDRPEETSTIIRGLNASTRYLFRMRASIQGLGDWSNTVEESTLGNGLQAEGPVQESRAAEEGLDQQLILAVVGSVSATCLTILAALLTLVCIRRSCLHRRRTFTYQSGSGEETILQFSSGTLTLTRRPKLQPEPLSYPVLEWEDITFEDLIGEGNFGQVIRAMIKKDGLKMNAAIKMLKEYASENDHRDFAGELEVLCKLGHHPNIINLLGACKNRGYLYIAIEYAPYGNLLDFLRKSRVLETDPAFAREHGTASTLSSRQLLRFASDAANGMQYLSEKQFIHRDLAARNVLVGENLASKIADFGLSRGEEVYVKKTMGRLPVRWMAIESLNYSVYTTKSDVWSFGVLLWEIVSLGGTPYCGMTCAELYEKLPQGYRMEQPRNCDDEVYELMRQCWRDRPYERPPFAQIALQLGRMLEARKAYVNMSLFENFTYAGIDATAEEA

TSSK1B (human) = TSSK1B (human) (UniProt Q9BXA7)
[1] = system: EGFR (human), P00533 [A750P; 747-749 del]
SRPK2 (human) = SRPK2 (human) (UniProt P78362)
PAK3 (human) = PAK3 (human) (UniProt O75914)
PAK6 (human) = PAK6 (human) (UniProt Q9NQU5)
CHUK (human) = CHUK (human) (UniProt O15111)
CaMK1 (human) = CaMK1 (human) (UniProt Q14012)
AURKB (human) = AURKB (human) (UniProt Q96GD4)
DAPK1 (human) = DAPK1 (human) (UniProt P53355)
MAP3K13 (human) = MAP3K13 (human) (UniProt O43283)
RPS6KA5 KD1 (human) = RPS6KA5 KD1 (human) (UniProt O75582)
MAP3K9 (human) = MAP3K9 (human) (UniProt P80192)
STK32C (human) = STK32C (human) (UniProt Q86UX6)
Sequence of STK32C (human) (Q86UX6 whole entry, looked up): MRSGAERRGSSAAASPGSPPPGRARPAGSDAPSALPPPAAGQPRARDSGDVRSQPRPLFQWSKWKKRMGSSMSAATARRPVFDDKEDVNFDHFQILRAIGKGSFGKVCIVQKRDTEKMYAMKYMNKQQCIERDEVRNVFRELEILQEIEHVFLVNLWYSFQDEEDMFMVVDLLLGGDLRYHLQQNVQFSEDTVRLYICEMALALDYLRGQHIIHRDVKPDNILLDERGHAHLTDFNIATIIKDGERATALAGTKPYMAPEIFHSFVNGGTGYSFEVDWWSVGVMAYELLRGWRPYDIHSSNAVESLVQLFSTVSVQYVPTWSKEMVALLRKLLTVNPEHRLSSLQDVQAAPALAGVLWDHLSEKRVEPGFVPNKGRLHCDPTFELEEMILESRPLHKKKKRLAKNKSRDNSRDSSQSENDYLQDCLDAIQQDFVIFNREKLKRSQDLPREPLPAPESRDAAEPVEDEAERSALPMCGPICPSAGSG

SIK2 (human) = SIK2 (human) (UniProt Q9H0K1)
FLT4 (human) = FLT4 (human) (UniProt P35916)
ICK (human) = ICK (human) (UniProt Q9UPZ9)
MAPK12 (human) = MAPK12 (human) (UniProt P53778)
MAPK6 (human) = MAPK6 (human) (UniProt Q16659)
EPHA7 (human) = EPHA7 (human) (UniProt Q15375)
CDK16 (human) = CDK16 (human) (UniProt Q00536)
RIPK4 (human) = RIPK4 (human) (UniProt P57078)
RPS6KA6 KD1 (human) = RPS6KA6 KD1 (human) (UniProt Q9UK32)
SGK110 (human) = SGK110 (human) (UniProt P0C264)
PRKCE (human) = PRKCE (human) (UniProt Q02156)
Sequence of PRKCE (human) (Q02156 whole entry, looked up): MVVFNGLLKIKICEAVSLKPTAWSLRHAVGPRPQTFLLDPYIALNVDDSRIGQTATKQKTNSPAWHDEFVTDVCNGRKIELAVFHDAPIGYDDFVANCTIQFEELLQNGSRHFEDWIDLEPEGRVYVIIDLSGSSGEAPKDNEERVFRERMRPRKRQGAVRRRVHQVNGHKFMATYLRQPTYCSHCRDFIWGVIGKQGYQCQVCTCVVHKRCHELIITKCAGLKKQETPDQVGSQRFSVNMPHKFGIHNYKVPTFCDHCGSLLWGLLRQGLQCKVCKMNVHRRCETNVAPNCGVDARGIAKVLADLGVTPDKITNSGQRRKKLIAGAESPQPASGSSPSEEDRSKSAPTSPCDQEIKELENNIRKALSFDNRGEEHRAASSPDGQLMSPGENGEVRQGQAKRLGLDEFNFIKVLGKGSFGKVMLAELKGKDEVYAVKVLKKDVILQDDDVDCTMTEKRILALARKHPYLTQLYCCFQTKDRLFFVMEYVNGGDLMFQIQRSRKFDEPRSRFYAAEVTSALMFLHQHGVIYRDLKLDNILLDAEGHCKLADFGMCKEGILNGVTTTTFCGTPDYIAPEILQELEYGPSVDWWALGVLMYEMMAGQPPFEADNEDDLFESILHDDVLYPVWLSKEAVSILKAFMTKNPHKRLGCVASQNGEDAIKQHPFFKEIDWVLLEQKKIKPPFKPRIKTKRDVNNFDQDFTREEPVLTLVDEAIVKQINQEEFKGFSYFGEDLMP

STK24 (human) = STK24 (human) (UniProt Q9Y6E0)
Sequence of STK24 (human) (Q9Y6E0 whole entry, looked up): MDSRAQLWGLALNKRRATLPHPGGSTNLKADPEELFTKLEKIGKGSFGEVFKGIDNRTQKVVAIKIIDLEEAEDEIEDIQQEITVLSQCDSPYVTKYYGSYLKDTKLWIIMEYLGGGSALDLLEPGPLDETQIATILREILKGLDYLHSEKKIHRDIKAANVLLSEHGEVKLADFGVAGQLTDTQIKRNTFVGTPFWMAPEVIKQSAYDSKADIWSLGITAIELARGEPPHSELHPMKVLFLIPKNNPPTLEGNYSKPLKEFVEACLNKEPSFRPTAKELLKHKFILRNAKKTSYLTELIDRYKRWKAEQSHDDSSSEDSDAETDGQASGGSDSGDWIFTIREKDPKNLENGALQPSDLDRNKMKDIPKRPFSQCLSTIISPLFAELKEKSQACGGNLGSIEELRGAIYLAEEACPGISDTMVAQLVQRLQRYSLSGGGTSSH

Sequence of CDK9 (human) (P50750 whole entry, looked up): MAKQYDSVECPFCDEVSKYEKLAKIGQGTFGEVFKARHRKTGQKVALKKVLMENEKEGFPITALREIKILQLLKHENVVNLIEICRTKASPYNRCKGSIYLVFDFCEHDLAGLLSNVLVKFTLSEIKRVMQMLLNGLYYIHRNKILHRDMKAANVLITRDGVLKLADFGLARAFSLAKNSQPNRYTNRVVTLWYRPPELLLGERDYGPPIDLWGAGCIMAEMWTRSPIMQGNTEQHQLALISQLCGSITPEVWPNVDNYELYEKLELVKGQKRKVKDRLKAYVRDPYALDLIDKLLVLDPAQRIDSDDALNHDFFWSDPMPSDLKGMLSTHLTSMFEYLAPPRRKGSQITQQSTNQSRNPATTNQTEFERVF
Sequence of PIK3CB (human) (P42338 whole entry, looked up): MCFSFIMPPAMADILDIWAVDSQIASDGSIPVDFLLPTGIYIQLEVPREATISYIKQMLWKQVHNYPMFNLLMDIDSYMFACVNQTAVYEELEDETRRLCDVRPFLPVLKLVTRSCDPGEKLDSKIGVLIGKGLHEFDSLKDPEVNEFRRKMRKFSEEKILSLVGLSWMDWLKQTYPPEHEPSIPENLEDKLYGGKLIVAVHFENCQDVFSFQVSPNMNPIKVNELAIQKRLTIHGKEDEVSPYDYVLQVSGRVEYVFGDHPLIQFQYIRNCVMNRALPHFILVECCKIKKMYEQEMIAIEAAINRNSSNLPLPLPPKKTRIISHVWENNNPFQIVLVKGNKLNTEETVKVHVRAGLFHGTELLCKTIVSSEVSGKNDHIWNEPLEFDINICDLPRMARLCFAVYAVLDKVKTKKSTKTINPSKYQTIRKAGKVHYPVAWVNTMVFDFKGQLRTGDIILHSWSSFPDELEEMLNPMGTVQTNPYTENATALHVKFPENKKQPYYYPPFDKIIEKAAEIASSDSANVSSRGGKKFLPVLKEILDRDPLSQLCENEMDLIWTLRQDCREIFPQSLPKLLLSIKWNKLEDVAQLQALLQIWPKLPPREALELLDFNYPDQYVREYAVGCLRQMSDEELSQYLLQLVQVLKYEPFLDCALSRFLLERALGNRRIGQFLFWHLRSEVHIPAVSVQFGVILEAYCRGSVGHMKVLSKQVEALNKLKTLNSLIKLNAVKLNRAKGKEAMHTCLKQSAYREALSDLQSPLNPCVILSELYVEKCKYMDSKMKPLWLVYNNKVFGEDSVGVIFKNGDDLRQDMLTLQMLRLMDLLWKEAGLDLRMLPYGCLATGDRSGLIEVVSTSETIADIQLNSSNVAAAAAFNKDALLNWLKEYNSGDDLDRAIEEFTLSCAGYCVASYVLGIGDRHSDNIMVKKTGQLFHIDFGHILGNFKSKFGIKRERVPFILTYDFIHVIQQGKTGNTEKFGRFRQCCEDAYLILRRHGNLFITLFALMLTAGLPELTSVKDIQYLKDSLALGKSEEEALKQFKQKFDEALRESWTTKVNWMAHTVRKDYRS

Row | kinase still bound, per cent of control (CDK9 (human)) [%] | kinase still bound, per cent of control (NEK5 (human)) [%] | kinase still bound, per cent of control (TNNI3K (human)) [%] | kinase still bound, per cent of control (PRKD1 (human)) [%] | kinase still bound, per cent of control (TNK2 (human)) [%] | kinase still bound, per cent of control (CSNK2A1 (human)) [%] | kinase still bound, per cent of control (PTK2 (human)) [%] | kinase still bound, per cent of control (FRK (human)) [%] | kinase still bound, per cent of control (TIE1 (human)) [%] | kinase still bound, per cent of control (TSSK1B (human)) [%] | kinase still bound, per cent of control [1] [%] | kinase still bound, per cent of control (SRPK2 (human)) [%] | kinase still bound, per cent of control (PAK3 (human)) [%] | kinase still bound, per cent of control (PAK6 (human)) [%] | kinase still bound, per cent of control (CaMK1 (human)) [%] | kinase still bound, per cent of control (AURKB (human)) [%] | kinase still bound, per cent of control (DAPK1 (human)) [%] | kinase still bound, per cent of control (RPS6KA5 KD1 (human)) [%] | kinase still bound, per cent of control (MAP3K9 (human)) [%] | kinase still bound, per cent of control (STK32C (human)) [%] | SMILES | also measured
1 | 100 | 100 | 100 | 100 | 17 | 100 | 100 | 100 | 100 | 100 | 100 | 100 | 100 | 100 | 100 | 100 | 100 | 100 | 100 | 100 | CCOc1cc(N2CCC(O)CC2)ccc1Nc1ncc2c(n1)N(C)c1ccccc1C(=O)N2C | kinase still bound, per cent of control (PRPF4B (human)): 100%; kinase still bound, per cent of control (PIK3CB (human)): 100%; kinase still bound, per cent of control (PIK3C2B (human)): 100%; kinase still bound, per cent of control (MAP3K7 (human)): 100%; kinase still bound, per cent of control (CHUK (human)): 100%; kinase still bound, per cent of control (MAP3K13 (human)): 100%; kinase still bound, per cent of control (SIK2 (human)): 100%; kinase still bound, per cent of control (FLT4 (human)): 100%; kinase still bound, per cent of control (ICK (human)): 100%; kinase still bound, per cent of control (MAPK12 (human)): 100%; kinase still bound, per cent of control (MAPK6 (human)): 100%; kinase still bound, per cent of control (EPHA7 (human)): 100%; kinase still bound, per cent of control (CDK16 (human)): 100%; kinase still bound, per cent of control (RIPK4 (human)): 100%; kinase still bound, per cent of control (RPS6KA6 KD1 (human)): 100%; kinase still bound, per cent of control (SGK110 (human)): 100%; kinase still bound, per cent of control (PRKCE (human)): 100%; kinase still bound, per cent of control (STK24 (human)): 100%
2 | 100 | 100 | 100 | 100 | 100 | 100 | 100 | 100 | 11 | 100 | 100 | 100 | 100 | 100 | 100 | 100 | 100 | 100 | 100 | 100 | COc1cc(C)c(Sc2cnc(NC(=O)c3ccc(CNC(C)C(C)C)cc3)s2)cc1C(=O)N1CCN(C(C)=O)CC1 (configuration not stated) | kinase still bound, per cent of control (PIK3CB (human)): 100%; kinase still bound, per cent of control (PIK3C2B (human)): 100%; kinase still bound, per cent of control (MAP3K7 (human)): 100%; kinase still bound, per cent of control (CHUK (human)): 100%; kinase still bound, per cent of control (SIK2 (human)): 100%; kinase still bound, per cent of control (FLT4 (human)): 100%; kinase still bound, per cent of control (MAPK12 (human)): 100%; kinase still bound, per cent of control (MAPK6 (human)): 100%; kinase still bound, per cent of control (EPHA7 (human)): 100%; kinase still bound, per cent of control (CDK16 (human)): 100%; kinase still bound, per cent of control (RIPK4 (human)): 100%; kinase still bound, per cent of control (RPS6KA6 KD1 (human)): 100%; kinase still bound, per cent of control (SGK110 (human)): 100%; kinase still bound, per cent of control (PRKCE (human)): 100%; kinase still bound, per cent of control (STK24 (human)): 33%
3 | 100 | 100 | 100 | 100 | 0.2 | 100 | 0 | 6.6 | 29 | 100 | 0.15 | 100 | 100 | 100 | 100 | 100 | 100 | 100 | 100 | 33 | COc1cc(N2CCC(C(N)=O)CC2)ccc1Nc1nc(N)c(Cl)c(Nc2ccccc2S(=O)(=O)C(C)C)n1 | kinase still bound, per cent of control (PIK3CB (human)): 100%; kinase still bound, per cent of control (PIK3C2B (human)): 100%; kinase still bound, per cent of control (MAP3K7 (human)): 100%; kinase still bound, per cent of control (CHUK (human)): 100%; kinase still bound, per cent of control (SIK2 (human)): 100%; kinase still bound, per cent of control (FLT4 (human)): 100%; kinase still bound, per cent of control (MAPK12 (human)): 100%; kinase still bound, per cent of control (MAPK6 (human)): 100%; kinase still bound, per cent of control (EPHA7 (human)): 15%; kinase still bound, per cent of control (CDK16 (human)): 100%; kinase still bound, per cent of control (RIPK4 (human)): 100%; kinase still bound, per cent of control (RPS6KA6 KD1 (human)): 100%; kinase still bound, per cent of control (SGK110 (human)): 100%; kinase still bound, per cent of control (PRKCE (human)): 100%; kinase still bound, per cent of control (STK24 (human)): 100%
4 | 100 | 100 | 0.6 | 100 | 4 | 100 | 4.6 | 0.4 | 3.8 | 100 | 0.6 | 100 | 11 | 100 | 100 | 100 | 100 | 100 | 100 | 100 | COc1ccc(N(C(=O)Oc2cc(C(=O)Nc3cccc(C(F)(F)F)c3)ccc2C)c2ccnc(Nc3ccc(N4CCN(C)CC4)cc3)n2)c(OC)c1 | kinase still bound, per cent of control (SIK2 (human)): 1.9%; kinase still bound, per cent of control (FLT4 (human)): 2%; kinase still bound, per cent of control (MAPK12 (human)): 100%; kinase still bound, per cent of control (MAPK6 (human)): 100%; kinase still bound, per cent of control (EPHA7 (human)): 0.6%; kinase still bound, per cent of control (CDK16 (human)): 100%; kinase still bound, per cent of control (RPS6KA6 KD1 (human)): 100%; kinase still bound, per cent of control (PRKCE (human)): 100%; kinase still bound, per cent of control (STK24 (human)): 100%

— the kinase profiling compilation of Christmann-Franck et al. (2016)
